Experimental data taken from patent US20090197955A1, “METHODS OF IMPROVING DHA DEPOSITION AND RELATED FUNCTION AND/OR DEVELOPMENT” (Monsanto Company, priority 2008, published 2009).

Assay: Fatty acid composition of pig tissues (ham, loin, belly, skin) after feeding SDA ethyl ester diets, 35 day study
Assay type: in vivo, pigs
Procedure: A 35 day study was conducted to determine whether pigs fed a diet containing SDA could enhance tissues with improved fatty acid profiles including increased levels of SDA, EPA, and DHA.
Four test diets (Treatment 2, 3, 4, and 5) with SDA ethyl ester substituted for corn oil to provide 0.2, 0.4, 0.6 and 0.8% (w/w SDA active ingredient, as-is basis) were fed ad libitum to one pen of four pigs throughout the 35-day test period Table 4). All diets were fed in meal form. Treatment 6 was fed the same diet as Treatment 5, but for a duration of only 21 days.
All pigs were individually weighed at initiation of the acclimation and test period, and immediately prior to slaughter. Feed consumption per pen was recorded. Upon completion of the feeding period, pigs were slaughtered for tissue collection and carcass evaluation. Pigs were slaughtered using standard industry practices (electrical stunning, exsanguinations, scalding, dehairing and evisceration). Live weights prior to slaughter and hot carcass weights were recorded. The left side of each carcass was fabricated and samples were obtained from the loin (longissimus muscle), ham (semimembranosus muscle) and belly (a section from the center of the belly) for sensory evaluation, fatty acid, and proximate analysis. Prior to removing the sample for sensory and fatty and proximate analysis from the belly the firmness of the belly was evaluated using a flop test. At 24 hr postmortem fat thickness (10th rib), loin eye area (10th rib), visual color, firmness and marbling, Minolta color (L*a*b*), pH, and drip loss were measured.
In order to evaluate the fatty acid composition of pig tissues (loin, ham, skin, and belly), samples were stored at −80° C. until evaluation. After thawing, ˜22 g of fresh pig tissue was chopped into small pieces and thoroughly mixed before 10 g was sub sampled and lyophilized. Lyophilized samples were ground in 30 ml Sarstedt tubes with two ball bearings using a Mega Grinder. Ground samples (loin and ham: 50 mg; skin: 100 mg; belly: 150 mg; diet: 500 mg) were directly methylated with sulfuric acid in methanol (loin and ham: 1 mL; skin: 3 mL; belly: 10 mL; diet: 1.5 mL) sealed in the presence of butylated hydroxytoluene (50 mg BHT in 100 ml reagent) in reflux conditions of 90° C. Resultant fatty acid methyl esters (FAME's) were separated by capillary gas chromatography (GC) and detected by flame ionization detector (FID). The column used was a Supelco Omegawax 250 capillary column with dimensions of 30 m×0.25 mm×0.25 μm film thickness. The run time was 32 minutes. Peaks were identified based on their relative retention time compared to a FAME reference mixture. Quantification was achieved by using an internal standard (c15:0 triacylglyceride (TAG) for pig tissue samples and c17:0 TAG for diet samples). Results are reported as FA g/100 g fat with theoretical response correction.
For Table 6 below, each value represents g/100 g total fatty acids a mean of 4 samples (1 sample from each of 4 pigs) per treatment.

SMILES: CC/C=C\C/C=C\C/C=C\C/C=C\CCCCC(=O)O [SDA, stearidonic acid]
- 18:4 n-3, ham (SDA 0.6%, 35 Day): 3.56c mg FA/100 g of fresh tissue
- 20:1 n-9, ham (SDA 0.6%, 35 Day): 13.3 mg FA/100 g of fresh tissue
- 20:2 n-6, ham (SDA 0.6%, 35 Day): 6.1b mg FA/100 g of fresh tissue
- 20:3 n-3, ham (SDA 0.6%, 35 Day): 0.87 mg FA/100 g of fresh tissue
- 20:4 n-3, ham (SDA 0.6%, 35 Day): 5.85c mg FA/100 g of fresh tissue
- 20:4 n-6, ham (SDA 0.6%, 35 Day): 55.3 mg FA/100 g of fresh tissue
- 20:5 n-3, ham (SDA 0.6%, 35 Day): 11.32bc mg FA/100 g of fresh tissue
- 22:1 n-11, ham (SDA 0.6%, 35 Day): 0.58a mg FA/100 g of fresh tissue
- 22:5 n-3, ham (SDA 0.6%, 35 Day): 14.4bc mg FA/100 g of fresh tissue
- 22:6 n-3, ham (SDA 0.6%, 35 Day): 2.14 mg FA/100 g of fresh tissue
- Lipid content, ham (SDA 0.6%, 35 Day): 2.24%
- Total PUFA, ham (SDA 0.6%, 35 Day): 337.7 mg FA/100 g of fresh tissue
- Total monoenes, ham (SDA 0.6%, 35 Day): 1039 mg FA/100 g of fresh tissue
- Total n-3, ham (SDA 0.6%, 35 Day): 43.1b mg FA/100 g of fresh tissue
- Total n-6, ham (SDA 0.6%, 35 Day): 294.5 mg FA/100 g of fresh tissue
- Total saturates, ham (SDA 0.6%, 35 Day): 765.2 mg FA/100 g of fresh tissue
- n-3/n-6, ham (SDA 0.6%, 35 Day): 0.147
- 12:0, ham (SDA 0.8%, 21 Day): 2.2 mg FA/100 g of fresh tissue
- 14:0, ham (SDA 0.8%, 21 Day): 36.8 mg FA/100 g of fresh tissue
- 16:0, ham (SDA 0.8%, 21 Day): 701.1 mg FA/100 g of fresh tissue
- 16:1 n-7, ham (SDA 0.8%, 21 Day): 108.3 mg FA/100 g of fresh tissue
- 18:0, ham (SDA 0.8%, 21 Day): 358.1 mg FA/100 g of fresh tissue
- 18:1 n-7, ham (SDA 0.8%, 21 Day): 138.1 mg FA/100 g of fresh tissue
- 18:1 n-9, ham (SDA 0.8%, 21 Day): 1266.2 mg FA/100 g of fresh tissue
- 18:2 n-6, ham (SDA 0.8%, 21 Day): 290.7 mg FA/100 g of fresh tissue
- 18:3 n-3, ham (SDA 0.8%, 21 Day): 8.66 mg FA/100 g of fresh tissue
- 18:4 n-3, ham (SDA 0.8%, 21 Day): 3.67c mg FA/100 g of fresh tissue
- 20:1 n-9, ham (SDA 0.8%, 21 Day): 21.8 mg FA/100 g of fresh tissue
- 20:2 n-6, ham (SDA 0.8%, 21 Day): 11.3a mg FA/100 g of fresh tissue
- 20:3 n-3, ham (SDA 0.8%, 21 Day): 1.33 mg FA/100 g of fresh tissue
- 20:4 n-3, ham (SDA 0.8%, 21 Day): 7.23c mg FA/100 g of fresh tissue
- 20:4 n-6, ham (SDA 0.8%, 21 Day): 63.4 mg FA/100 g of fresh tissue
- 20:5 n-3, ham (SDA 0.8%, 21 Day): 9.68b mg FA/100 g of fresh tissue
- 22:1 n-11, ham (SDA 0.8%, 21 Day): 0.95ab mg FA/100 g of fresh tissue
- 22:5 n-3, ham (SDA 0.8%, 21 Day): 13.2bc mg FA/100 g of fresh tissue
- 22:6 n-3, ham (SDA 0.8%, 21 Day): 1.85 mg FA/100 g of fresh tissue
- Lipid content, ham (SDA 0.8%, 21 Day): 3.23%
- Total PUFA, ham (SDA 0.8%, 21 Day): 433.7 mg FA/100 g of fresh tissue
- Total monoenes, ham (SDA 0.8%, 21 Day): 1546 mg FA/100 g of fresh tissue
- Total n-3, ham (SDA 0.8%, 21 Day): 45.6b mg FA/100 g of fresh tissue
- Total n-6, ham (SDA 0.8%, 21 Day): 388.1 mg FA/100 g of fresh tissue
- Total saturates, ham (SDA 0.8%, 21 Day): 1104.4 mg FA/100 g of fresh tissue
- n-3/n-6, ham (SDA 0.8%, 21 Day): 0.121c
- 12:0, ham (SDA 0.8%, 35 Day): 1.04 mg FA/100 g of fresh tissue
- 14:0, ham (SDA 0.8%, 35 Day): 18.3 mg FA/100 g of fresh tissue
- 16:0, ham (SDA 0.8%, 35 Day): 386.7 mg FA/100 g of fresh tissue
- 16:1 n-7, ham (SDA 0.8%, 35 Day): 52.8 mg FA/100 g of fresh tissue
- 18:0, ham (SDA 0.8%, 35 Day): 206.6 mg FA/100 g of fresh tissue
- 18:1 n-7, ham (SDA 0.8%, 35 Day): 81.5 mg FA/100 g of fresh tissue
- 18:1 n-9, ham (SDA 0.8%, 35 Day): 685.9 mg FA/100 g of fresh tissue
- 18:2 n-6, ham (SDA 0.8%, 35 Day): 208.6 mg FA/100 g of fresh tissue
- 18:3 n-3, ham (SDA 0.8%, 35 Day): 4.70 mg FA/100 g of fresh tissue
- 18:4 n-3, ham (SDA 0.8%, 35 Day): 4.09c mg FA/100 g of fresh tissue
- 20:1 n-9, ham (SDA 0.8%, 35 Day): 9.9 mg FA/100 g of fresh tissue
- 20:2 n-6, ham (SDA 0.8%, 35 Day): 5.1b mg FA/100 g of fresh tissue
- 20:3 n-3, ham (SDA 0.8%, 35 Day): 0.62 mg FA/100 g of fresh tissue
- 20:4 n-3, ham (SDA 0.8%, 35 Day): 5.36bc mg FA/100 g of fresh tissue
- 20:4 n-6, ham (SDA 0.8%, 35 Day): 54.2 mg FA/100 g of fresh tissue
- 20:5 n-3, ham (SDA 0.8%, 35 Day): 14.69c mg FA/100 g of fresh tissue
- 22:1 n-11, ham (SDA 0.8%, 35 Day): 0.57a mg FA/100 g of fresh tissue
- 22:5 n-3, ham (SDA 0.8%, 35 Day): 14.2bc mg FA/100 g of fresh tissue
- 22:6 n-3, ham (SDA 0.8%, 35 Day): 2.35 mg FA/100 g of fresh tissue
- Lipid content, ham (SDA 0.8%, 35 Day): 1.88%
- Total PUFA, ham (SDA 0.8%, 35 Day): 330.6 mg FA/100 g of fresh tissue
- Total monoenes, ham (SDA 0.8%, 35 Day): 846 mg FA/100 g of fresh tissue
- Total n-3, ham (SDA 0.8%, 35 Day): 46.0b mg FA/100 g of fresh tissue
- Total n-6, ham (SDA 0.8%, 35 Day): 284.6 mg FA/100 g of fresh tissue
- Total saturates, ham (SDA 0.8%, 35 Day): 616.6 mg FA/100 g of fresh tissue
- n-3/n-6, ham (SDA 0.8%, 35 Day): 0.162
- Omega 3 fatty acid enrichment in belly, loin, ham and skin tissues as compared to the control (SDA fed for the last 35 days prior to slaughter): significant increase
- More DHA deposition with 35 days than with 21 days of SDA consumption (Treatment 5 (35 day) vs Treatment six (21 day), 0.8% SDA, ham): about 27%
